Calls of active or inactive are those of the source. The rule behind the calls is not given here.
How the values were obtained:
Assay type in all cases: functional, cell-based
[1] = tested on: RAW264.7; experiment: Inhibition of LPS-induced IL-6 level in Mus musculus (mouse) RAW264.7 cells pretreated for 1 hr before treatment with 100 ng/ml LPS for 6 hr by ELISA
[2] = tested on: RAW264.7; experiment: Inhibition of LPS-induced TLR4 expression in Mus musculus (mouse) RAW264.7 cells pretreated for 1 hr before treatment with 100 ng/ml LPS for 6 hr by RT-PCR analysis
[3] = tested on: RAW264.7; experiment: Inhibition of LPS-induced TLR4 expression in Mus musculus (mouse) RAW264.7 cells pretreated for 1 hr before treatment with 100 ng/ml LPS for 6 hr by Western blot analysis
[4] = tested on: RAW264.7; experiment: Effect on HSP70 protein level in Mus musculus (mouse) RAW264.7 cells pretreated for 1 hr before treatment with 100 ng/ml LPS for 6 hr by RT-PCR analysis
[5] = tested on: RAW264.7; experiment: Inhibition of LPS-induced TNF-alpha level in Mus musculus (mouse) RAW264.7 cells pretreated for 1 hr before treatment with 100 ng/ml LPS for 6 hr by ELISA
[6] = tested on: RAW264.7; experiment: Effect on HSP70 mRNA level in Mus musculus (mouse) RAW264.7 cells pretreated for 1 hr before treatment with 100 ng/ml LPS for 6 hr by RT-PCR analysis

With `CC(C)[C@]12O[C@H]1[C@@H]1O[C@]13[C@]1(O[C@H]1C[C@H]1C4=C(CC[C@@]13C)C(=O)OC4)[C@@H]2O` the inhibition [1] was “Dose-dependent effect”, the inhibition [2] was “Dose-dependent effect” and the inhibition [3] was “Dose-dependent effect”. The Activity [4] was “inactive”, the inhibition [5] was “Dose-dependent effect” and the Activity [6] was “inactive”.

From ChEMBL document CHEMBL3045032, “Triptolide suppresses lipopolysaccharide-induced activity of toll-like receptor 4 in mouse macrophage cell line RAW 264.7” (Med Chem Res, 2012)
